In the assay the target is T1, Bcl-2 protein (Recombinant Human Bcl-2 Protein) (Homo sapiens, UniProt P10415).
T1 construct: purchased Novus NBP2-34889
Put plainly: Binding evaluation of mixture library compounds to Bcl-2 using AS-MS (affinity selection mass spectrometry). In a few lines:
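ASMS Ratio (%) was calculated as (A−C)/B×100, where A is the protein sample after SEC, B the protein-free sample without SEC and C the protein-free sample after SEC. Each compound was at […] in a 1200-member pool with 20 μM Bcl-2, incubated 1 h at 23° C.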

T1 sequence (P10415 whole entry): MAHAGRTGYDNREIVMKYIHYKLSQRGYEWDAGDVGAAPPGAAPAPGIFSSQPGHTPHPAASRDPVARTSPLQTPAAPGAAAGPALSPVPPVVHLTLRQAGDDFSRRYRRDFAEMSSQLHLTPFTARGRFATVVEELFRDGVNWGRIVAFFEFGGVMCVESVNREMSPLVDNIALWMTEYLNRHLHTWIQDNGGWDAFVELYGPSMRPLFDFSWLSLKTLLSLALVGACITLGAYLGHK

`CCOc1cncc(-c2csc(CN3CCN(c4ccc(C(=O)NS(C)(=O)=O)nn4)CC3)c2)c1` [B2I094-01, 6-[4-[[4-(5-Ethoxypyridin-3-yl)thiophen-2-yl]methyl]piperazin-1-yl]-N-methylsulfonylpyridazine-3-carboxamide]: the “ASMS ratio (%)” value came to 0.0% (n = 1) and 0.0% (n = 2).
Regarding `CCOc1cccc(C#Cc2ccccc2CN2CCN(c3ccc(C(=O)NS(C)(=O)=O)nn3)CC2)c1` [B2I095-01, 6-[4-[[2-[2-(3-Ethoxyphenyl)ethynyl]phenyl]methyl]piperazin-1-yl]-N-methylsulfonylpyridazine-3-carboxamide], the “ASMS ratio (%)” value runs as follows: (n = 1) 0.0%; (n = 2) 0.0%.
With `CCOc1cncc(C#Cc2ccccc2CN2CCN(c3ccc(C(=O)NS(C)(=O)=O)nn3)CC2)c1` [B2I096-01, 6-[4-[[2-[2-(5-Ethoxypyridin-3-yl)ethynyl]phenyl]methyl]piperazin-1-yl]-N-methylsulfonylpyridazine-3-carboxamide], the “ASMS ratio (%)” value by setting is: (n = 1) 0.0%; (n = 2) 0.0%.
On to `CCOc1cccc(-c2ccc(C(C)N3CCN(c4ccc(C(=O)NS(C)(=O)=O)cc4)CC3)cc2)c1` (stereo not drawn) [B2I097-01, 4-[4-[1-[4-(3-Ethoxyphenyl)phenyl]ethyl]piperazin-1-yl]-N-methylsulfonylbenzamide], for which the “ASMS ratio (%)” value reads like this: (n = 1) 0.8%; (n = 2) 1.4%.
For `CCOc1cncc(-c2ccc(C(C)N3CCN(c4ccc(C(=O)NS(C)(=O)=O)cc4)CC3)cc2)c1` (stereo not drawn) [B2I098-01, 4-[4-[1-[4-(5-Ethoxypyridin-3-yl)phenyl]ethyl]piperazin-1-yl]-N-methylsulfonylbenzamide], the “ASMS ratio (%)” value is, setting by setting: (n = 1) 0.0%; (n = 2) 0.0%.
On to `CCOc1cccc(-c2ccc(C(C)N3CCN(c4ccc(C(=O)NS(C)(=O)=O)cc4)CC3)c(F)c2)c1` (stereo not drawn) [B2I099-01, 4-[4-[1-[4-(3-Ethoxyphenyl)-2-fluorophenyl]ethyl]piperazin-1-yl]-N-methylsulfonylbenzamide], for which the “ASMS ratio (%)” value (n = 2) is recorded as 0.0%.
For `CCOc1cncc(-c2ccc(C(C)N3CCN(c4ccc(C(=O)NS(C)(=O)=O)cc4)CC3)c(F)c2)c1` (stereo not drawn) [B2I100-01, 4-[4-[1-[4-(5-Ethoxypyridin-3-yl)-2-fluorophenyl]ethyl]piperazin-1-yl]-N-methylsulfonylbenzamide], the “ASMS ratio (%)” value is on record as 0.0% (n = 1) and 0.0% (n = 2).
As to `CCOc1cccc(-c2csc(C(=O)N3CCN(c4ccc(C(=O)NS(=O)(=O)C(C)(C)C)nn4)CC3)c2)c1` [B2L001-01, N-tert-Butylsulfonyl-6-[4-[4-(3-ethoxyphenyl)thiophene-2-carbonyl]piperazin-1-yl]pyridazine-3-carboxamide], the “ASMS ratio (%)” value reads like this: (n = 1) −67.5%; (n = 2) 0.0%.
Taken in the same sequence, the figures for `CCOc1cncc(-c2csc(C(=O)N3CCN(c4ccc(C(=O)NS(=O)(=O)C(C)(C)C)nn4)CC3)c2)c1` [B2L002-01, N-tert-Butylsulfonyl-6-[4-[4-(5-ethoxypyridin-3-yl)thiophene-2-carbonyl]piperazin-1-yl]pyridazine-3-carboxamide] were 0.0% and 0.0%.
The like results for `CCOc1cccc(-c2ccc(C(=O)N3CCN(c4ccc(C(=O)NS(=O)(=O)C(C)(C)C)nn4)CC3)cc2C)c1` [B2L003-01, N-tert-Butylsulfonyl-6-[4-[4-(3-ethoxyphenyl)-3-methylbenzoyl]piperazin-1-yl]pyridazine-3-carboxamide] were, in that order, 0.0% and 0.0%.
Taken in the same sequence, the figures for `CCOc1cncc(-c2ccc(C(=O)N3CCN(c4ccc(C(=O)NS(=O)(=O)C(C)(C)C)nn4)CC3)cc2C)c1` [B2L004-01, N-tert-Butylsulfonyl-6-[4-[4-(5-ethoxypyridin-3-yl)-3-methylbenzoyl]piperazin-1-yl]pyridazine-3-carboxamide] were 5.5% and 9.3%.
Turning to `CCOc1cccc(-c2ccc(C(=O)N3CCN(c4ccc(C(=O)NS(=O)(=O)C(C)(C)C)nn4)CC3)cc2F)c1` [B2L005-01, N-tert-Butylsulfonyl-6-[4-[4-(3-ethoxyphenyl)-3-fluorobenzoyl]piperazin-1-yl]pyridazine-3-carboxamide], the “ASMS ratio (%)” value (n = 1) is on record as 0.0% and the “ASMS ratio (%)” value (n = 2) stood at 0.0%.
Take `CCOc1cncc(-c2ccc(C(=O)N3CCN(c4ccc(C(=O)NS(=O)(=O)C(C)(C)C)nn4)CC3)cc2F)c1` [B2L006-01, N-tert-Butylsulfonyl-6-[4-[4-(5-ethoxypyridin-3-yl)-3-fluorobenzoyl]piperazin-1-yl]pyridazine-3-carboxamide]: the “ASMS ratio (%)” value stood at 0.0% (n = 1) and 0.0% (n = 2).
As for `CCOc1cccc(C#Cc2ccccc2C(=O)N2CCN(c3ccc(C(=O)NS(=O)(=O)C(C)(C)C)nn3)CC2)c1` [B2L007-01, N-tert-Butylsulfonyl-6-[4-[2-[2-(3-ethoxyphenyl)ethynyl]benzoyl]piperazin-1-yl]pyridazine-3-carboxamide], the “ASMS ratio (%)” value is, setting by setting: (n = 1) 0.0%; (n = 2) −1.0%.
As to `CCOc1cncc(C#Cc2ccccc2C(=O)N2CCN(c3ccc(C(=O)NS(=O)(=O)C(C)(C)C)nn3)CC2)c1` [B2L008-01, N-tert-Butylsulfonyl-6-[4-[2-[2-(5-ethoxypyridin-3-yl)ethynyl]benzoyl]piperazin-1-yl]pyridazine-3-carboxamide], the “ASMS ratio (%)” value is 0.0% (n = 1) and 0.0% (n = 2).
For `CCOc1cccc(C#Cc2cncc(C(=O)N3CCN(c4ccc(C(=O)NS(=O)(=O)C(C)(C)C)nn4)CC3)c2)c1` [B2L009-01, N-tert-Butylsulfonyl-6-[4-[5-[2-(3-ethoxyphenyl)ethynyl]pyridine-3-carbonyl]piperazin-1-yl]pyridazine-3-carboxamide], the “ASMS ratio (%)” value is, setting by setting: (n = 1) 0.0%; (n = 2) 0.0%.
As to `CCOc1cncc(C#Cc2cncc(C(=O)N3CCN(c4ccc(C(=O)NS(=O)(=O)C(C)(C)C)nn4)CC3)c2)c1` [B2L010-01, N-tert-Butylsulfonyl-6-[4-[5-[2-(5-ethoxypyridin-3-yl)ethynyl]pyridine-3-carbonyl]piperazin-1-yl]pyridazine-3-carboxamide], the “ASMS ratio (%)” value is recorded as 0.0% (n = 1) and 0.0% (n = 2).
`CCOc1cccc(-c2ccccc2CCC(=O)N2CCN(c3ccc(C(=O)NS(=O)(=O)C(C)(C)C)nn3)CC2)c1` [B2L011-01, N-tert-Butylsulfonyl-6-[4-[3-[2-(3-ethoxyphenyl)phenyl]propanoyl]piperazin-1-yl]pyridazine-3-carboxamide]: the “ASMS ratio (%)” value is, setting by setting: (n = 1) 0.0%; (n = 2) 0.0%.
As to `CCOc1cncc(-c2ccccc2CCC(=O)N2CCN(c3ccc(C(=O)NS(=O)(=O)C(C)(C)C)nn3)CC2)c1` [B2L012-01, N-tert-Butylsulfonyl-6-[4-[3-[2-(5-ethoxypyridin-3-yl)phenyl]propanoyl]piperazin-1-yl]pyridazine-3-carboxamide], the “ASMS ratio (%)” value runs as follows: (n = 1) 4.3%; (n = 2) 7.3%.
`CCOc1cccc(-c2ccc(C(=O)N3CCN(c4ccc(C(=O)NS(=O)(=O)C(C)(C)C)nn4)CC3)c3ccccc23)c1` [B2L013-01, N-tert-Butylsulfonyl-6-[4-[4-(3-ethoxyphenyl)naphthalene-1-carbonyl]piperazin-1-yl]pyridazine-3-carboxamide]: the “ASMS ratio (%)” value (n = 1) was found to be 0.0% and the “ASMS ratio (%)” value (n = 2) is 0.0%.
On to `CCOc1cncc(-c2ccc(C(=O)N3CCN(c4ccc(C(=O)NS(=O)(=O)C(C)(C)C)nn4)CC3)c3ccccc23)c1` [B2L014-01, N-tert-Butylsulfonyl-6-[4-[4-(5-ethoxypyridin-3-yl)naphthalene-1-carbonyl]piperazin-1-yl]pyridazine-3-carboxamide], for which the “ASMS ratio (%)” value turned out to be 0.3% (n = 1) and 0.5% (n = 2).
Taken in the same sequence, the figures for `CCOc1cccc(-c2cc(C(=O)N3CCN(c4ccc(C(=O)NS(=O)(=O)C(C)(C)C)nn4)CC3)cc(C(C)(C)C)c2)c1` [B2L015-01, 6-[4-[3-tert-Butyl-5-(3-ethoxyphenyl)benzoyl]piperazin-1-yl]-N-tert-butylsulfonylpyridazine-3-carboxamide] were 0.0% and 0.0%.
In the case of `CCOc1cncc(-c2cc(C(=O)N3CCN(c4ccc(C(=O)NS(=O)(=O)C(C)(C)C)nn4)CC3)cc(C(C)(C)C)c2)c1` [B2L016-01, 6-[4-[3-tert-Butyl-5-(5-ethoxypyridin-3-yl)benzoyl]piperazin-1-yl]-N-tert-butylsulfonylpyridazine-3-carboxamide], the “ASMS ratio (%)” value (n = 1) is given as 0.0% and the “ASMS ratio (%)” value (n = 2) is recorded as −5.4%.
As to `CCOc1cccc(-c2cc(C(=O)N3CCN(c4ccc(C(=O)NS(=O)(=O)C(C)(C)C)nn4)CC3)cc(C(F)(F)F)c2)c1` [B2L017-01, N-tert-Butylsulfonyl-6-[4-[3-(3-ethoxyphenyl)-5-(trifluoromethyl)benzoyl]piperazin-1-yl]pyridazine-3-carboxamide], the “ASMS ratio (%)” value runs as follows: (n = 1) 0.0%; (n = 2) 0.0%.
As for `CCOc1cncc(-c2cc(C(=O)N3CCN(c4ccc(C(=O)NS(=O)(=O)C(C)(C)C)nn4)CC3)cc(C(F)(F)F)c2)c1` [B2L018-01, N-tert-Butylsulfonyl-6-[4-[3-(5-ethoxypyridin-3-yl)-5-(trifluoromethyl)benzoyl]piperazin-1-yl]pyridazine-3-carboxamide], the “ASMS ratio (%)” value by setting is: (n = 1) −1.9%; (n = 2) −2.5%.
With `CCOc1cncc(C#Cc2cc(C(=O)N3CCN(c4ccc(C(=O)NS(=O)(=O)C(C)(C)C)nn4)CC3)cc(C(F)(F)F)c2)c1` [B2L020-01, N-tert-Butylsulfonyl-6-[4-[3-[2-(5-ethoxypyridin-3-yl)ethynyl]-5-(trifluoromethyl)benzoyl]piperazin-1-yl]pyridazine-3-carboxamide], the “ASMS ratio (%)” value (n = 1) amounted to 0.0% and the “ASMS ratio (%)” value (n = 2) is listed as 0.0%.

Source of the values: patent publication US20240132431A1, “METHOD FOR ALKYLATING ACIDIC FUNCTIONAL GROUP” (Chugai Seiyaku Kabushiki Kaisha, priority 2021, published 2024).
